Laboratory results as given in ChEMBL document CHEMBL5465560, “Selectivity Literature for EUbOPEN Chemogenomic Library” (2024).

Legend:
[1] = biological target: Tyrosine-protein kinase Fyn (Homo sapiens) (UniProt P06241); assay: Selectivity interaction (KinomeScan (DiscoverX)) EUB0000045b FYN
[2] = biological target: Dual specificity mitogen-activated protein kinase kinase 1 (Homo sapiens, UniProt Q02750); assay: Selectivity interaction (KinomeScan (DiscoverX)) EUB0000045b MAP2K1
[3] = biological target: LIM domain kinase 1 (Homo sapiens) (UniProt P53667); assay: Selectivity interaction (KinomeScan (DiscoverX)) EUB0001079a LIMK1; conditions: at 1 µM
[4] = biological target: Casein kinase II subunit alpha (Homo sapiens, UniProt P68400); conditions: at 10 µM
[5] = biological target: Calcium/calmodulin-dependent protein kinase type 1D (Homo sapiens) (UniProt Q8IU85); assay: Selectivity interaction (ProQinase) EUB0000171b CAMK1D
[6] = biological target: RAF proto-oncogene serine/threonine-protein kinase (Homo sapiens) (UniProt P04049); assay: Selectivity interaction (Kinase panel (Eurofins)) EUB0001564a RAF1; conditions: at 1 µM
[7] = biological target: Cyclin-dependent kinase-like 1 (Homo sapiens) (UniProt Q00532); assay: Selectivity interaction (KinomeScan (DiscoverX)) EUB0001619a CDKL1; conditions: at 1 µM
[8] = biological target: T1, SNF-related serine/threonine-protein kinase (Homo sapiens) (UniProt Q9NRH2); assay: Selectivity interaction (KinomeScan (DiscoverX)) EUB0000618a SNRK; conditions: at 10 µM
T1 sequence (whole entry): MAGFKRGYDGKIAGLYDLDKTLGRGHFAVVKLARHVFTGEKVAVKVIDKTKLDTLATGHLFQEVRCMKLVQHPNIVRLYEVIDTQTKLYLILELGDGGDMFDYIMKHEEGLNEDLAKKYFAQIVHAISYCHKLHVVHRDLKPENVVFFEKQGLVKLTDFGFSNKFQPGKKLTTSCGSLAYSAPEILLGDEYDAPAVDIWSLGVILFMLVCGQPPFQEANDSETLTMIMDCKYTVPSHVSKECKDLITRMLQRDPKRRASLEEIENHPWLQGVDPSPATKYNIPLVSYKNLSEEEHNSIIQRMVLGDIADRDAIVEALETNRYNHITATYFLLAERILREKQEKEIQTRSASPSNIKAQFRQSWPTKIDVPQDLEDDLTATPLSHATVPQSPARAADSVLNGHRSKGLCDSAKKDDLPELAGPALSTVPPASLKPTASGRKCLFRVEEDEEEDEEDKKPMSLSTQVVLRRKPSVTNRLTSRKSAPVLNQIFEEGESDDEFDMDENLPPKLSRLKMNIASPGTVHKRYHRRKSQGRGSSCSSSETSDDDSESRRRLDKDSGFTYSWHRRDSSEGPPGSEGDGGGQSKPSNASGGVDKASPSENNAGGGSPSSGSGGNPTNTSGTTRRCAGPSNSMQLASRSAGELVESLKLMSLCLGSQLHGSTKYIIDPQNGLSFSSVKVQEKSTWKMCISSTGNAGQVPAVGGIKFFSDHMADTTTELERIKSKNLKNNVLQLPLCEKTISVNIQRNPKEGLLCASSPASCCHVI

[9] = biological target: Dual specificity protein kinase CLK2 (Homo sapiens, UniProt P49760); assay: Selectivity interaction (Kinase panel (Invitrogen)) EUB0000639a CLK2; conditions: at 200 nM
[10] = biological target: Epithelial discoidin domain-containing receptor 1 (Homo sapiens) (UniProt Q08345); assay: Selectivity interaction (KinomeScan (DiscoverX)) EUB0000092b DDR1; conditions: at 10 µM
[11] = biological target: T2, Ephrin type-B receptor 2 (Homo sapiens) (UniProt P29323); assay: Selectivity interaction (KinomeScan (DiscoverX)) EUB0000092b EPHB2; conditions: at 10 µM
T2 sequence (whole entry): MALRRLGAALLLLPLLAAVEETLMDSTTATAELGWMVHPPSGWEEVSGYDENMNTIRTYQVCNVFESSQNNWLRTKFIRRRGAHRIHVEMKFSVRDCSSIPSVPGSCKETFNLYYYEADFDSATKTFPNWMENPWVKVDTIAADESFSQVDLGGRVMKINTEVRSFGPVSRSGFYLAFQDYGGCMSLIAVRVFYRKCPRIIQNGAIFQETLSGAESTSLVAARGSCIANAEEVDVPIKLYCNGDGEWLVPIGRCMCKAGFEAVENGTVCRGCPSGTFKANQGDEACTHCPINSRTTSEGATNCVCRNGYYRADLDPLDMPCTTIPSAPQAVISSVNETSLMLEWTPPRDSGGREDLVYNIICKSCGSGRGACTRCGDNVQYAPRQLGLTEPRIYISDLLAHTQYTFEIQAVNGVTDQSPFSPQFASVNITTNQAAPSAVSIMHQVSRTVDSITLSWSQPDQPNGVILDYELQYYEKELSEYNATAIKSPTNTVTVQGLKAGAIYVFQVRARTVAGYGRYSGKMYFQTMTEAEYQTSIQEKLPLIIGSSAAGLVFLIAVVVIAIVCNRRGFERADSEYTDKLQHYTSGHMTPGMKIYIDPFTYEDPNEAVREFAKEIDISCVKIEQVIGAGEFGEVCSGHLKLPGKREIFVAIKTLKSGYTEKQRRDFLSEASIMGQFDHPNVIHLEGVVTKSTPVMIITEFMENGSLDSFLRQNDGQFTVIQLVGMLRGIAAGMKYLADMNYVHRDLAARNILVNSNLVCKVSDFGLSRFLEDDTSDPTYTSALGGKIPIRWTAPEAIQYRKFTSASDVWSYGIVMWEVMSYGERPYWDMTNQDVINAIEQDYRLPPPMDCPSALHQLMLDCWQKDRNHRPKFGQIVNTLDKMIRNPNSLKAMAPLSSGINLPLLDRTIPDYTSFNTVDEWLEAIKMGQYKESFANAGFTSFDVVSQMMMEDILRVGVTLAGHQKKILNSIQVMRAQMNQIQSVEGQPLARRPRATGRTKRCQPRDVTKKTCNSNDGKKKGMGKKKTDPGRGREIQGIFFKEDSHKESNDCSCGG

Chain of Dual specificity mitogen-activated protein kinase kinase 1 (Q02750 whole entry, the tested form may be a part): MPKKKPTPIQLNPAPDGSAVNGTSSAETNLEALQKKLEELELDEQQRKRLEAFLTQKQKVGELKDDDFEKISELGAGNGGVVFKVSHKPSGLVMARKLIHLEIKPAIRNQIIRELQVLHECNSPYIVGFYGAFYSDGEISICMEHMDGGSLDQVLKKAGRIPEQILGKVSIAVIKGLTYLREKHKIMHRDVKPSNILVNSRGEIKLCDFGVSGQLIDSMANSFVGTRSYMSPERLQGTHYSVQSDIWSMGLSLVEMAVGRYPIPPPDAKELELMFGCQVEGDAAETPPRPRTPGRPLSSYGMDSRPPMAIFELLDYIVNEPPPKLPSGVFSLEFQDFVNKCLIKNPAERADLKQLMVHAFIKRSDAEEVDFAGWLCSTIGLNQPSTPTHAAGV
Chain of Calcium/calmodulin-dependent protein kinase type 1D (Homo sapiens) (Q8IU85 whole entry, looked up): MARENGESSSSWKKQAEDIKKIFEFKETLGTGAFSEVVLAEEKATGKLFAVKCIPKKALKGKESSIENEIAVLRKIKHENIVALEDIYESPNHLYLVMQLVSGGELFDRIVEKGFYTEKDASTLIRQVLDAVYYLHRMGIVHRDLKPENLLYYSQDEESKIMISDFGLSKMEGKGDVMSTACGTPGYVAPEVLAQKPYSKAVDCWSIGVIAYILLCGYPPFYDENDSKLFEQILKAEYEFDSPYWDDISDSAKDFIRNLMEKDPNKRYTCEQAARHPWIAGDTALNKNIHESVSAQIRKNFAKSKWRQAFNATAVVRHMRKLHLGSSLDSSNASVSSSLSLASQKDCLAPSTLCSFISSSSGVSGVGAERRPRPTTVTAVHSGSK
Chain of Tyrosine-protein kinase Fyn (Homo sapiens) (P06241 2-537 limits assumed): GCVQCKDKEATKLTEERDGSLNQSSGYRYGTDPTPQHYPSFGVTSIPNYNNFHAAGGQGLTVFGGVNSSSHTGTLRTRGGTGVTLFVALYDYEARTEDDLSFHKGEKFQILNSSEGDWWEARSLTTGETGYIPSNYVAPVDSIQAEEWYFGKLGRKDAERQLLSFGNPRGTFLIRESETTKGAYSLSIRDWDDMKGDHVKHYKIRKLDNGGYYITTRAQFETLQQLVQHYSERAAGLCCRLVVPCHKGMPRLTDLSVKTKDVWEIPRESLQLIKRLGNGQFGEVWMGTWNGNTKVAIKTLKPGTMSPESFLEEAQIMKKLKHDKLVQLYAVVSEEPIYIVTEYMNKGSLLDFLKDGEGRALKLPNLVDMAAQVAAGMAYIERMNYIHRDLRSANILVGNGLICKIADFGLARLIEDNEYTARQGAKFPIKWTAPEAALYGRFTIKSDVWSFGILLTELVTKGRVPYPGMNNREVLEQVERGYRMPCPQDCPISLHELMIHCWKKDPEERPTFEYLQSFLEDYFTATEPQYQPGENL
Chain of Dual specificity protein kinase CLK2 (P49760 whole entry, looked up, the tested form may be a part): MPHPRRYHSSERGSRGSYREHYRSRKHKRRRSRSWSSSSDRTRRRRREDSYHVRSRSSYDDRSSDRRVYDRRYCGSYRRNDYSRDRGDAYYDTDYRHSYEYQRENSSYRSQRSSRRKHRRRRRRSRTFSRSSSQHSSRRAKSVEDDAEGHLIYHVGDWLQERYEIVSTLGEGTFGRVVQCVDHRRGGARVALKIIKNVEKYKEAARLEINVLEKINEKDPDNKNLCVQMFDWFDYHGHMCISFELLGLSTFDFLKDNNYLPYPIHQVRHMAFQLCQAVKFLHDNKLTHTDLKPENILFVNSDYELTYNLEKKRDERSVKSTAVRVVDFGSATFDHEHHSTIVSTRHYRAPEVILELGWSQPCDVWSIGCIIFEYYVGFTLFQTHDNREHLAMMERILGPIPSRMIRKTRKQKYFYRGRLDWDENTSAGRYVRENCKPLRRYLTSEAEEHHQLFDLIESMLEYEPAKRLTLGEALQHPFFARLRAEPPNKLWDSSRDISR
Chain of LIM domain kinase 1 (Homo sapiens) (P53667 whole entry, looked up, the tested form may be a part): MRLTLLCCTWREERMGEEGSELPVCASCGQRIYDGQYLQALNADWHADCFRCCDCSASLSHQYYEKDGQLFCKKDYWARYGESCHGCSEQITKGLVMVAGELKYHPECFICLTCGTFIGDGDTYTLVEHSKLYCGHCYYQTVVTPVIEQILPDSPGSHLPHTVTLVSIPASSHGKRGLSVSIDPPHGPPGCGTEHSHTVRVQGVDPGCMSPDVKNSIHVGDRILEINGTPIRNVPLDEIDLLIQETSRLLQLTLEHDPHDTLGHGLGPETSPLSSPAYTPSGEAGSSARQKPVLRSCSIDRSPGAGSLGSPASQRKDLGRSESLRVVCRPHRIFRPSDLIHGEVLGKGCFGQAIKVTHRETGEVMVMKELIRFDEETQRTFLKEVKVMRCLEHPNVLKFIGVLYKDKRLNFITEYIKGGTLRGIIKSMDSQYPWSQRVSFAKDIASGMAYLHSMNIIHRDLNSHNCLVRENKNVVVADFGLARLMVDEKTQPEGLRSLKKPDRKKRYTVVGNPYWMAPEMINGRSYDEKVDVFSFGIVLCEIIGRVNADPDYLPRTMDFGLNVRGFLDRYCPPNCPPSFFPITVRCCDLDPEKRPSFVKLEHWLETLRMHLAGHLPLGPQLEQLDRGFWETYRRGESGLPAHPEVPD
Chain of Cyclin-dependent kinase-like 1 (Homo sapiens) (Q00532 whole entry): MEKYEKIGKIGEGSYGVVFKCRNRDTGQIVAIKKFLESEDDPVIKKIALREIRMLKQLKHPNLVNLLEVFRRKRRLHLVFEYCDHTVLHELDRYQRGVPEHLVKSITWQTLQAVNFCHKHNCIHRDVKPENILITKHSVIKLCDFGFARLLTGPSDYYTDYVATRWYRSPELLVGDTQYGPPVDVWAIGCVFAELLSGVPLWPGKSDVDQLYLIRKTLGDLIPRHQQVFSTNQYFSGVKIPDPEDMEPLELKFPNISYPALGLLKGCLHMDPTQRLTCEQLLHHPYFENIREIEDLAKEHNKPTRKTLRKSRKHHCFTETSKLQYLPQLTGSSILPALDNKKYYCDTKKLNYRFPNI
Chain of Epithelial discoidin domain-containing receptor 1 (Homo sapiens) (Q08345 whole entry, the tested form may be a part): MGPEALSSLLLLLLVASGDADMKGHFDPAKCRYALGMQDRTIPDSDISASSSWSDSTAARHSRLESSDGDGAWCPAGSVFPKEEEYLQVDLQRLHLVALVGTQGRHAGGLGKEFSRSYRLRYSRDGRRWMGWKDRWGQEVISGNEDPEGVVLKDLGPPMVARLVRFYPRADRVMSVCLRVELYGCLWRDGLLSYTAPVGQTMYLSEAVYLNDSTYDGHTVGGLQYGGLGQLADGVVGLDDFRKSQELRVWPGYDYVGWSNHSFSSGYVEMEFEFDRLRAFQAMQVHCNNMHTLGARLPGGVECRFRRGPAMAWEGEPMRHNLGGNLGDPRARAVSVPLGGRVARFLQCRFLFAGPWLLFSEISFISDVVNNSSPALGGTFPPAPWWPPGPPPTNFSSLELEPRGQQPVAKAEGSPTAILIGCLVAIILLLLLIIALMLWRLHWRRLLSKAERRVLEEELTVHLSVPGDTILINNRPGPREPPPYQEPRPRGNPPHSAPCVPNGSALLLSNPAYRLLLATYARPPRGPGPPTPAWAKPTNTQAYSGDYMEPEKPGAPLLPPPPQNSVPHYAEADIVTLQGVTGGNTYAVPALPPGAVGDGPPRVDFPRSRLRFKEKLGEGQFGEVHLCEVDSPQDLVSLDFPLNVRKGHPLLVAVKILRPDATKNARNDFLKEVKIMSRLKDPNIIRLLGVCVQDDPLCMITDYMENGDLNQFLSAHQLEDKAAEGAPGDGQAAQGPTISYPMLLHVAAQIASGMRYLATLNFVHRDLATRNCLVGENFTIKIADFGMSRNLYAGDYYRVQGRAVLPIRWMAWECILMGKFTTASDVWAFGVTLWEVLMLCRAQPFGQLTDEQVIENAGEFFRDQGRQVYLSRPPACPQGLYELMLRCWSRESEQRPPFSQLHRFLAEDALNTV
Chain of Casein kinase II subunit alpha (P68400 whole entry, looked up): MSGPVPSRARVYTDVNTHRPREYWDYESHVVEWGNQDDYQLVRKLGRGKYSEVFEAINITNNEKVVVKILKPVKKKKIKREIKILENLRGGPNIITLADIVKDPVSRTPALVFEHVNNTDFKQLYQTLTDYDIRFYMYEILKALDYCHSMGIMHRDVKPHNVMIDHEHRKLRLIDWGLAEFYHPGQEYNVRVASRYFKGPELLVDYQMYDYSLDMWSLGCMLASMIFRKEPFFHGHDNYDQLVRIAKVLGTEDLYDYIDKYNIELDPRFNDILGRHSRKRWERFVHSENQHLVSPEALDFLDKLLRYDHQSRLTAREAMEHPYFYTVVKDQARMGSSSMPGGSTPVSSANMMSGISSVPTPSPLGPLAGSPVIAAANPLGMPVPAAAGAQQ
Chain of RAF proto-oncogene serine/threonine-protein kinase (Homo sapiens) (P04049 whole entry): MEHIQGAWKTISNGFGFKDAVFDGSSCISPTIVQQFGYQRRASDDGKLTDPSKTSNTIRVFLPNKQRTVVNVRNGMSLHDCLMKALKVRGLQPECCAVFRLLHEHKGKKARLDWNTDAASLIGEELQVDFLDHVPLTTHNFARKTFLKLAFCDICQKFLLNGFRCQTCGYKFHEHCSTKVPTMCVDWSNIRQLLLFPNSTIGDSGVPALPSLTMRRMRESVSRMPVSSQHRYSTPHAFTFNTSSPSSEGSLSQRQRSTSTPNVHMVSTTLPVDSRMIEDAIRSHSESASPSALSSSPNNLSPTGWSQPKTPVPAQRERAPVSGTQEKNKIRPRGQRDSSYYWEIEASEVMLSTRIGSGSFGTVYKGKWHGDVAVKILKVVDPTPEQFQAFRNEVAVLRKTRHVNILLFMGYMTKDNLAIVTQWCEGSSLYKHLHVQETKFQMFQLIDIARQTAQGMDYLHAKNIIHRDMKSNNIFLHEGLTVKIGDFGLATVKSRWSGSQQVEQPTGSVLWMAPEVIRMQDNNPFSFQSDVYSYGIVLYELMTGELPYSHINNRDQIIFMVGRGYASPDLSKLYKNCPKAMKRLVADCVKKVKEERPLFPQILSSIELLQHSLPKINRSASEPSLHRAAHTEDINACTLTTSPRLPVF

`C=CC(=O)Nc1cc(-n2c(=O)ccc3cnc4ccc(-c5ccc(NS(C)(=O)=O)cc5)cc4c32)ccc1C` showed a % of control ([1]; at 1 µM) of 100%, a % of control ([1]; at 10 µM) of 98% and a % of control ([2]; at 1 µM) of 100%. It also gave a % of control ([2]; at 10 µM) of 65%.

Work on `Nc1cnc(N2CCc3cc(S(=O)(=O)Nc4c(F)cc(Cl)cc4F)cc(N4CCCC4=O)c32)nc1` [TP-020n] yielded a % of control [3] of 100%.

`Cc1cc([C@@H](C)Nc2ccccc2C(=O)O)c2nc(N3CCOCC3)cc(=O)n2c1` [AZD-6482] was tested, and the % of control [4] was 100%.

`C=CC(=O)Nc1cccc(C(=O)Nc2ccc(Nc3cc(-c4[nH]c(SC)nc4C)ccn3)cc2)c1` was tested, and the % of control ([5]; at 1 µM) was 90% and the % of control ([5]; at 5 µM) was 75%.

`CC[C@@H](Nc1c(C#N)c(-c2ccc(-c3cccc(C)c3F)cc2)nc2cnccc12)C(=O)O` [BAY-091] gave a % of inhibition [6] of 36%.

For `N#Cc1cccc(-c2c[nH]c3ncnc(N4CCOCC4)c23)c1`, the % of control [7] was 100%.

In the case of `O[C@H]1CC[C@H](Nc2ncc3nc(Nc4c(F)cc(F)cc4F)n([C@H]4CCOC4)c3n2)CC1`, the % of control [8] is reported as 100%.

Work on `CC[C@@H]1[C@H](F)C(=O)N[C@@H]1COc1nccc2cc(C(N)=O)c(OC)cc12` [ZIMLOVISERTIB] yielded a % of inhibition [9] of 14.8%.

Compound `CCC(=O)N1CCN(c2ccc(-n3c(=O)ccc4cnc5ccc(-c6cnc7ccccc7c6)cc5c43)cc2C(F)(F)F)CC1` has a % of control [10] of 100% and a % of control [11] of 100%.
